Measurements reported in US20030129180A1, “Products and methods for treating microbial infections” (The Proctor & Gamble Company, priority 2001, published 2003).

Key:
T. mentagrophytes = assay: Relative growth of pre-germinated arthrospores in ESD broth tubes; assay type: cell-based; design: key: −: - (no growth); relative scale from - (no growth) to +++ (maximal growth); relative scale from - (no growth) to +++ (maximal growth); +++ (maximal growth); conditions: clotrimazole control, 20 μ/ml per tube, 26° C.
Description: (§1) Purified arthrospore suspensions of T. mentagrophytes or T. rubrum (prepared as per L. R. Wright et al., 1983, J. Antimicrob. Chemotherapy 12:317-327), diluted to a concentration of 1×10^6 cfu/ml in Emmon's modification of Sabouraud Dextrose Broth (ESD—R. Atlas, 1997, Handbook of microbiological media, CRC Press Inc., Boca Raton, Fla.), are incubated for 6 hours at 26° C. or 30° C., respectively, to pre-germinate spores. Enzyme preparations of chitinase (Sigma Cat. No. C-1525) and β1-1,3-glucanase (Sigma Cat. No. L-2524) are diluted into 3 ml volumes of ESD in capped glass tubes, to final concentrations of each enzyme ranging from 0 to 100 ppm. Clotrimazole controls are also prepared, to a final concentration of 20 μ/ml per tube.
(§2) Each tube is then inoculated with 10 μl (1×10^4 cfu) of either the T. mentagrophytes or T. rubrum pre-germinated arthrospore suspension, followed by incubation on a shaker at 200 rpm, at 26° C. or 30° C., respectively, for a total of 41 hours.

T. rubrum = assay: as above; assay type: cell-based; design: key: −: - (no growth); relative scale from - (no growth) to +++ (maximal growth); relative scale from - (no growth) to +++ (maximal growth); +++ (maximal growth); conditions: clotrimazole control, 20 μ/ml per tube, 30° C.
Description: as §1, §2

Clc1ccccc1C(c1ccccc1)(c1ccccc1)n1ccnc1 [clotrimazole]
−: Growth, T. mentagrophytes, 18 hours (T. mentagrophytes; 18 hours) | Growth, T. mentagrophytes, 41 hours (T. mentagrophytes; 41 hours) | Growth, T. rubrum, 18 hours (T. rubrum; 18 hours) | Growth, T. rubrum, 41 hours (T. rubrum; 41 hours)
